# Data reported in patent US10562857B2 (AFASCI, Inc., priority 2015, dated 2020).
# “Also recorded” adds a separate entry of the source.
# Columns and labels:
# [1] = tested on: harmaline-induced tremor in mice; assay: Harmaline-induced essential tremor model in mice; format: in vivo, mouse
# Procedure: FIG. 12. Effects of EXAMPLE-128 on harmaline-induced essential tremor model in mice. Harmaline was dissolved in saline and administrated at 10 mg/kg (S.C.) mice (C57BL/6, male, 3-5 months). Ten minutes after tremors occurred, mice were treated with either EXAMPLE-128 (30 mg/kg, I.P.) or vehicle (2% DMSO in 0.5% HPC).
# Harmaline can induce tremors modeling human essential tremor manifested as postural and kinetic tremors (Nahab et al., 2012). Harmaline was dissolved in saline and administrated at 10 mg/kg (s.c.) to mice (C57BL/6, male, 3 months) and the mice were immediately returned to homecage monitor with an piezoelectric sensor operated by the SmartCage™ for continual recordings for 60 min. […] Mice were randomly assigned to be treated with EXAMPLE-128 (3, 10 or 30 mg/kg, I.P.) or vehicle (2% DMSO in 0.5% HPC), starting ten min after tremors began, Tremor episode numbers and each episode's duration were offline human scored.
# [2] = tested on: Ames microsomemutagenicity assay; assay: Ames microsome mutagenicity assay; format: cell-based
# From the text: Moreover, compounds useful in therapeutic formulations may be further screened for undesired side effect activities by utilizing large ancillary pharmacology panel screens, for example, SafetyScreen 44 and the Ames microsomemutagenicity assay (Eurofins-Cerep, US and France).
# [3] = tested on: taxol-induced neuropathic pain model in mice; assay: Taxol-induced neuropathic pain in mice, von Frey test; format: in vivo, mouse; conditions: taxol 4 mg/kg I.P., 3, 10 or 30 mg/kg I.P.
# Procedure: FIG. 6A. Effects of EXAMPLE-115 on taxol (4 mg/kg, I.P.)-induced neuropathic pain model in mice. Mechanical pain thresholds of left hindpaws were assessed using von Frey monofilament test. Each mouse received either EXAMPLE-115 (3, 10 or 30 mg/kg, I.P.) or vehicle (2% DMSO in 0.5% HPC, I.P.; n=8 per group). Injection of taxol lowered mechanical pain thresholds.
# FIG. 6B. Effects of EXAMPLE-123 on taxol (4 mg/kg, I.P.)-induced neuropathic pain model in a separate cohort of mice. Mechanical pain thresholds of left hindpaws were assessed using von Frey monofilament test. Each mouse received either EXAMPLE-123 (30 mg/kg, I.P., n=8) or vehicle (2% DMSO in 0.5% HPC, I.P.).
# Chemotherapy-induced painful neuropathy is a common side effect associated with chronic treatment with Taxol (paclitaxel) or other anticancer drugs based on cytotoxicity. Taxol or paclitaxel is one of the most popular drugs used for the treatment of various cancers (Chaudhry et al., 1994). The chemotherapy-induced peripheral neuropathy manifests as chronic hyperalgesia and other sensory abnormalities. Taxol (Sigma, 4.0 mg/kg, I.P.) was dissolved in saline containing 5% DMSO (vehicle) and injected to mice (freshly prepared before injection).
Structure (SMILES),"total tremor occurring time in 60 minutes ([1]; harmaline 10 mg/kg S.C., 30 mg/kg I.P.)","total time spent in tremors ([1]; harmaline 10 mg/kg s.c., 3, 10 or 30 mg/kg I.P.)",mutagenicity [2],"mechanical pain threshold, taxol-induced neuropathic pain [3]"
"CC(C)(C)NC(=O)CN1CCC2(CC1)CC2NC(=O)c1cc(F)cc(Cl)c1 (single isomer, unassigned) [Example 128, (S)—N-(6-(2-(tert-Butylamino)-2-oxoethyl)-6-azaspiro[2.5]octan-1-yl)-3-chloro-5-fluorobenzamide or (R)—N-(6-(2-(tert-Butylamino)-2-oxoethyl)-6-azaspiro[2.5]octan-1-yl)-3-chloro-5-fluorobenzamide]",significantly reduced the total tremor occurring time,significantly reduced the total time spent in tremors in a dose-dependent manner,lack of mutagenicity,
"O=C(Nc1nnc(-c2ccccc2)o1)c1ccc(Cl)s1 [Example 115, 5-Chloro-N-(5-phenyl-1,3,4-oxadiazol-2-yl)thiophene-2-carboxamide]",,,,produced significant effects on Taxol-induced pain compared to vehicle in a dose-dependent manner; also recorded: reversed the taxol-induced neuropathic pain in a dose-dependent manner
